Where a name gives a salt, the structure may show the parent alone.
Molecular target: Prostate-specific antigen (Homo sapiens) (UniProt P07288)
Assay: Concentration required for inhibition of 50% of the cleavage of para-nitroanilide from MeO-Suc-Arg-Pro-Tyr-pNA.HCl by Prostate specific antigen PSA

Chain of Prostate-specific antigen (Homo sapiens) (P07288 whole entry, looked up): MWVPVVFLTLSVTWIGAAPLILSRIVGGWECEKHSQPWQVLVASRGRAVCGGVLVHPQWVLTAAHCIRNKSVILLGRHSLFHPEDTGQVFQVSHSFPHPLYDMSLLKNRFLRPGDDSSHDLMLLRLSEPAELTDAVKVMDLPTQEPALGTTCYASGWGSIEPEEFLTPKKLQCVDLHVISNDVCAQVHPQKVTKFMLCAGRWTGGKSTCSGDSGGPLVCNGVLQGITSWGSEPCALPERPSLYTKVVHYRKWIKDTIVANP

| Compound | IC50 [nM] |
| --- | --- |
| O=C(O)c1ccc(COC(=O)[C@@H]2[C@H](Cc3ccccc3)C(=O)N2C(=O)Cc2cccc(C(=O)O)c2)cc1 [3-Benzyl-1-[2-(3-carboxy-phenyl)-acetyl]-4-oxo-azetidine-2-carboxylic acid 4-carboxy-benzyl ester] | > 30000 |
| NCc1ccc(COC(=O)[C@@H]2[C@H](Cc3ccccc3)C(=O)N2C(=O)Cc2cccc(C(=O)O)c2)cc1 [(2S,3S)-3-Benzyl-1-[2-(3-carboxy-phenyl)-acetyl]-4-oxo-azetidine-2-carboxylic acid 4-aminomethyl-benzyl ester; TFA] | 1340 |

— BindingDB's records for doi:10.1016/S0960-894X(97)00285-0 (1997)
